What all share (format): cell-based
The subject of test [1] is multi-resistant Staphylococcus aureus 171. The experiment in a line: paper diffusion method drug sensitivity test, MRSA-171. Particulars: for Zone of Inhibition: MRSA-171, 30 μg/tablet paper disc (6.35 mm), LB plate, 37° C., 24 h; for inhibitory effect (in words): multi-drug resistant Staphylococcus aureus 171, 30 μg/tablet. On the procedure:
(§1) The antimicrobial efficacy was determined by a paper diffusion method drug sensitivity test.
(§2) Experimental strains: multi-resistant Staphylococcus aureus 171, multi-resistant Staphylococcus aureus 575, multi-resistant Staphylococcus aureus 596. The experimental strain was identified by Huashan Hospital, Fudan University (Institute of Antibiotic of Fudan University).
(§3) Drug sensitive paper: The drug sensitive paper was a special drug sensitive paper with a diameter of 6.35 mm and a water absorption of 0.02 mL. The control drug was vancomycin (30 μg/tablet); the test drugs were pleuromutilin (30 μg/tablet), hippuric acid (30 μg/tablet) and pleuromutilin hippuric acid ester (30 μg/tablet).
(§4) Reagents: LB agar medium, LA broth medium, 0.5% DMSO solution.
(§5) The experimental strains were inoculated in non-selective medium and placed in air at 37° C. for 24 h. A single colony that grows well and inoculate it into broth medium was incubate at 35° C.±2° C. for 6 hours, and LA broth medium was used to calibrate the concentration of the bacterial solution to 0.5 Mie turbidimetric tube (1.5×10^8 CFU/mL). A bacterial suspension was obtained.
(§6) LB dry powder was weighed, sterilized at 103.4 Kpa, 121.3° C. high-pressure steam for 15 min, and then placed it in a 40° C.-50° C. water bath. A sterile empty plate (inner diameter 9 cm) was placed on the surface of the ultra-clean table water table, and […] was poured to the plate. The thickness of each plate was 3 mm to 4 mm. After the plate was cooled at room temperature, it was stored in the refrigerator at 2° C.-8° C. A sterile cotton swab was used to dip the bacterial solution and ti evenly coat the surface of the LB plate 3 times. After inoculation of the bacterial suspension, the LB plate was dried at room temperature for 3 min to 5 min. Sterile forceps were used to closely attach the antibacterial drug paper to the dish. The dish was put upside down and placed in a 37° C. incubator for 24 h. The results were observed by measuring the diameter. Taking 0.5% DMSO solution as a negative control, the antibacterial activity is expressed by the diameter of the inhibition zone. The inhibition zone ≥17 mm, sensitive; the inhibition zone of 15 mm-16 mm, intermediary; the inhibition zone ≤14 mm, drug resistance.

The test system of test [2] is multi-resistant Staphylococcus aureus 575. The experiment in a line: paper diffusion method drug sensitivity test, MRSA-575. Conditions: for Zone of Inhibition: MRSA-575, 30 μg/tablet paper disc (6.35 mm), LB plate, 37° C., 24 h; for inhibitory effect (in words): multi-drug resistant Staphylococcus aureus 575, 30 μg/tablet. The method, then:
as §1, §2, §3, §4, §5, §6

The test system of test [3] is multi-resistant Staphylococcus aureus 596. The test can be described thus: paper diffusion method drug sensitivity test, MRSA-596. Conditions: for Zone of Inhibition: MRSA-596, 30 μg/tablet paper disc (6.35 mm), LB plate, 37° C., 24 h; for inhibitory effect (in words): multi-drug resistant Staphylococcus aureus 596, 30 μg/tablet. The method, then: as §1, §2, §3, §4, §5, §6

Molecules are shown by their SMILES.

With `C=C[C@]1(C)C[C@@H](OC(=O)CO)[C@]2(C)[C@H](C)CC[C@]3(CCC(=O)[C@H]32)[C@@H](C)[C@@H]1O` [Pleuromutilin], the “Zone of Inhibition” value in test [1], in test [2] and in test [3] was 0 mm in each case. Also, the “inhibitory effect (in words)” value in test [1], in test [2] and in test [3] was “no inhibitory effect” throughout.
For the compound `C=C[C@]1(C)C[C@@H](OC(=O)COC(=O)CNC(=O)c2ccccc2)[C@]2(C)CC[C@@H](C)[C@@]3(CCC(=O)[C@@H]23)[C@@H](C)[C@@H]1O` [Pleuromutilin hippuric acid ester, (3aS,4R,5S,6S,8R,9R,9aR,12R)-5-hydroxy-4,6,9,12-tetramethyl-1-oxo-6-vinyldecahydro-3a,9-propanocyclopenta[8]annulen-8-yl 2-(2-benzamidoacetoxy)acetate], the “Zone of Inhibition” value in test [1] is recorded as 14 mm; in test [2], 15 mm; in test [3], 25 mm. In addition, the “inhibitory effect (in words)” value in test [1], in test [2] and in test [3] was “strong inhibitory effects” in each case.
Take `CN[C@H](CC(C)C)C(=O)N[C@H]1C(=O)N[C@@H](CC(N)=O)C(=O)N[C@H]2C(=O)N[C@H]3C(=O)N[C@H](C(=O)N[C@H](C(=O)O)c4cc(O)cc(O)c4-c4cc3ccc4O)[C@H](O)c3ccc(c(Cl)c3)Oc3cc2cc(c3O[C@@H]2O[C@H](CO)[C@@H](O)[C@H](O)[C@H]2O[C@H]2C[C@](C)(N)[C@H](O)[C@H](C)O2)Oc2ccc(cc2Cl)[C@H]1O` [Vancomycin]: the “Zone of Inhibition” value in test [1] was 15 mm; in test [2], 17 mm; in test [3] it was 23 mm.
On to `O=C(O)CNC(=O)c1ccccc1` [Hippuric acid], for which the “Zone of Inhibition” value in test [1], in test [2] and in test [3] was 0 mm in each case. Moreover, the “inhibitory effect (in words)” value in test [1], in test [2] and in test [3] was “no inhibitory effect” throughout.

The values above are taken from US11117859B1, “Pleuromutilin hippuric acid ester with antibacterial activity and a method of preparing the same” (SHAANXI UNIVERSITY OF SCIENCE AND TECHNOLOGY, priority 2021, dated 2021).
